ChEMBL document CHEMBL6182845, “Synthesis, screening and validation of cysteine-reactive fragments as chikungunya virus protease inhibitors” (Bioorg Med Chem Lett, 2025)
Calls of active or inactive are those of the source. The rule behind the calls is not given here.

Legend:
[1] = target: Polyprotein P1234 (Chikungunya virus (strain S27-African prototype) (CHIKV)) (UniProt Q8JUX6); assay: Inhibition of CHIKV nsP2 protease at 1 mM by FRET assay relative to control
[2] = target: Polyprotein P1234 (Chikungunya virus (strain S27-African prototype) (CHIKV)) (UniProt Q8JUX6); assay: Reversible binding affinity to CHIKV nsP2 protease at 10 uM preincubated with compound followed by 100 fold dilution and subsequent addition of substrate by jump-dilution assay
Polyprotein P1234 = Polyprotein P1234 (Chikungunya virus (strain S27-African prototype) (CHIKV), UniProt Q8JUX6); assay: Inhibition of CHIKV nsP2 protease by FRET assay
[3] = target: Polyprotein P1234 (Chikungunya virus (strain S27-African prototype) (CHIKV)) (UniProt Q8JUX6); assay: Irreversible binding affinity to CHIKV nsP2 protease at 10 uM preincubated with compound followed by 100 fold dilution and subsequent addition of substrate by jump-dilution assay
[4] = target: Polyprotein P1234 (Chikungunya virus (strain S27-African prototype) (CHIKV)) (UniProt Q8JUX6); assay: Binding affinity to CHIKV nsP2 protease assessed as covalent modification by mass spectrometry
[5] = target: Replicase polyprotein 1ab (Severe acute respiratory syndrome coronavirus 2) (UniProt P0DTD1); assay: Inhibition of SARS-CoV-2 PLpro at 1 mM by FRET analysis
[6] = target: Polyprotein P1234 (Sindbis virus) (UniProt P03317); assay: Inhibition of SINV nsP2pro at 1 mM by FRET analysis
Sequence of Polyprotein P1234 (Sindbis virus) (P03317 whole entry): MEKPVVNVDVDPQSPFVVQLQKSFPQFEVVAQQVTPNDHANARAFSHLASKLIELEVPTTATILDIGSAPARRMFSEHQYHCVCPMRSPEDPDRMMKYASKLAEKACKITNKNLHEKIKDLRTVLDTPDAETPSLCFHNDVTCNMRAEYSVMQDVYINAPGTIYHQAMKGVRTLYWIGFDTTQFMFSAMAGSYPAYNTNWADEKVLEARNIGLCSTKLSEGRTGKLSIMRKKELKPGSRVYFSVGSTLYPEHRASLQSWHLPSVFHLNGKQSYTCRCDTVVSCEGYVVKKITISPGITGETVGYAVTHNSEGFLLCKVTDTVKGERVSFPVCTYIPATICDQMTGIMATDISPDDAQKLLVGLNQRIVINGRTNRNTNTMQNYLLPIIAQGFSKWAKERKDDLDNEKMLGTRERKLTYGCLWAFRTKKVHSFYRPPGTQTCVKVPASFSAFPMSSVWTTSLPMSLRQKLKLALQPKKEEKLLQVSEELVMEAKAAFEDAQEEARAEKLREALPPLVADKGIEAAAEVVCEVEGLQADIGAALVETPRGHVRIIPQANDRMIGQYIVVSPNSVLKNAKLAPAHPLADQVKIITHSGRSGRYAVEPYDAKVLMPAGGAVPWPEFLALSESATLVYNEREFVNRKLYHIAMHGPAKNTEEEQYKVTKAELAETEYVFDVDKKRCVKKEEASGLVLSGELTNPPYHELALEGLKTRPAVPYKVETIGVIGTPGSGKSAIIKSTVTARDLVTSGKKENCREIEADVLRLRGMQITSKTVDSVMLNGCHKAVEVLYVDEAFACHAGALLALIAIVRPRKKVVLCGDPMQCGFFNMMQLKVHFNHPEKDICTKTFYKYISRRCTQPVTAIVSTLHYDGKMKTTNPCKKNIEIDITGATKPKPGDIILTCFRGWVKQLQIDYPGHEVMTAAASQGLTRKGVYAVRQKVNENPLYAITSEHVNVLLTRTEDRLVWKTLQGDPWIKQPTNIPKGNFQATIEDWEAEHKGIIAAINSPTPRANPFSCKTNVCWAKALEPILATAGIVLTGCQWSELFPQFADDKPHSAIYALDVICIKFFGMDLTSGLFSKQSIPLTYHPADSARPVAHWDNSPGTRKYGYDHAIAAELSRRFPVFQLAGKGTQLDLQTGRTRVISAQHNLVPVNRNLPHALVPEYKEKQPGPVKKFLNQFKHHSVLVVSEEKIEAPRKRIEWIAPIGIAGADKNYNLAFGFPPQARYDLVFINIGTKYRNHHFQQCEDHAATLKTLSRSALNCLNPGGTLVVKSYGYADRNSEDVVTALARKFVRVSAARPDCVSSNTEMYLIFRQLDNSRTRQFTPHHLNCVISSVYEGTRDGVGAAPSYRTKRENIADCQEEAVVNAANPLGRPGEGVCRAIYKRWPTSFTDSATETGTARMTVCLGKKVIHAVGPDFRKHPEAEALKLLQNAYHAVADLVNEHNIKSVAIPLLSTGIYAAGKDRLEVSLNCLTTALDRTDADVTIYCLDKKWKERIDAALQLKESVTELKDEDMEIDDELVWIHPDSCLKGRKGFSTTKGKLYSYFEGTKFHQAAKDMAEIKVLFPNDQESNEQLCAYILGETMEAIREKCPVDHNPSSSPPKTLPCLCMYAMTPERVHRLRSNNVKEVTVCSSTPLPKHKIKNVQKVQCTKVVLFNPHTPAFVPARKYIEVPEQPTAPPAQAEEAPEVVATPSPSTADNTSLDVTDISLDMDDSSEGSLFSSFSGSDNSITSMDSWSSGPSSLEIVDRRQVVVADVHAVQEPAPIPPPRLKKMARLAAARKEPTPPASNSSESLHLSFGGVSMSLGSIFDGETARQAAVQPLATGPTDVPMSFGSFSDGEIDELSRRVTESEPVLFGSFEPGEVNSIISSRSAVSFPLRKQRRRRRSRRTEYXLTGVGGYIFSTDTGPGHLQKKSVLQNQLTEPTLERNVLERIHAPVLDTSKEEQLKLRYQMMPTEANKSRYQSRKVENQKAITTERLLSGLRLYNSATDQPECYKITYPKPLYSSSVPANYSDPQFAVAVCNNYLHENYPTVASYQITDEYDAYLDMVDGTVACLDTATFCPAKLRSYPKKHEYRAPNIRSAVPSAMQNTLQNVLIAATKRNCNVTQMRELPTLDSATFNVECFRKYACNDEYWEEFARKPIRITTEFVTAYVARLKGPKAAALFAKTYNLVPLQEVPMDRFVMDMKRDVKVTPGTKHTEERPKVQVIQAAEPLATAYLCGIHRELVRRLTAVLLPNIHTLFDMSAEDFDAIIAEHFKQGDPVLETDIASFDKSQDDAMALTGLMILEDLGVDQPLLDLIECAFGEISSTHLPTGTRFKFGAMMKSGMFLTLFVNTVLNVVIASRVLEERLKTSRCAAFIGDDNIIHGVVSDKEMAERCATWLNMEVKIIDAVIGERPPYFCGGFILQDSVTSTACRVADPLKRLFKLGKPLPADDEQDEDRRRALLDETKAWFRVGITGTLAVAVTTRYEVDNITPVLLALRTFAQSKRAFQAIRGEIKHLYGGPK

Sequence of Polyprotein P1234 (Chikungunya virus (strain S27-African prototype) (CHIKV)) (Q8JUX6 whole entry): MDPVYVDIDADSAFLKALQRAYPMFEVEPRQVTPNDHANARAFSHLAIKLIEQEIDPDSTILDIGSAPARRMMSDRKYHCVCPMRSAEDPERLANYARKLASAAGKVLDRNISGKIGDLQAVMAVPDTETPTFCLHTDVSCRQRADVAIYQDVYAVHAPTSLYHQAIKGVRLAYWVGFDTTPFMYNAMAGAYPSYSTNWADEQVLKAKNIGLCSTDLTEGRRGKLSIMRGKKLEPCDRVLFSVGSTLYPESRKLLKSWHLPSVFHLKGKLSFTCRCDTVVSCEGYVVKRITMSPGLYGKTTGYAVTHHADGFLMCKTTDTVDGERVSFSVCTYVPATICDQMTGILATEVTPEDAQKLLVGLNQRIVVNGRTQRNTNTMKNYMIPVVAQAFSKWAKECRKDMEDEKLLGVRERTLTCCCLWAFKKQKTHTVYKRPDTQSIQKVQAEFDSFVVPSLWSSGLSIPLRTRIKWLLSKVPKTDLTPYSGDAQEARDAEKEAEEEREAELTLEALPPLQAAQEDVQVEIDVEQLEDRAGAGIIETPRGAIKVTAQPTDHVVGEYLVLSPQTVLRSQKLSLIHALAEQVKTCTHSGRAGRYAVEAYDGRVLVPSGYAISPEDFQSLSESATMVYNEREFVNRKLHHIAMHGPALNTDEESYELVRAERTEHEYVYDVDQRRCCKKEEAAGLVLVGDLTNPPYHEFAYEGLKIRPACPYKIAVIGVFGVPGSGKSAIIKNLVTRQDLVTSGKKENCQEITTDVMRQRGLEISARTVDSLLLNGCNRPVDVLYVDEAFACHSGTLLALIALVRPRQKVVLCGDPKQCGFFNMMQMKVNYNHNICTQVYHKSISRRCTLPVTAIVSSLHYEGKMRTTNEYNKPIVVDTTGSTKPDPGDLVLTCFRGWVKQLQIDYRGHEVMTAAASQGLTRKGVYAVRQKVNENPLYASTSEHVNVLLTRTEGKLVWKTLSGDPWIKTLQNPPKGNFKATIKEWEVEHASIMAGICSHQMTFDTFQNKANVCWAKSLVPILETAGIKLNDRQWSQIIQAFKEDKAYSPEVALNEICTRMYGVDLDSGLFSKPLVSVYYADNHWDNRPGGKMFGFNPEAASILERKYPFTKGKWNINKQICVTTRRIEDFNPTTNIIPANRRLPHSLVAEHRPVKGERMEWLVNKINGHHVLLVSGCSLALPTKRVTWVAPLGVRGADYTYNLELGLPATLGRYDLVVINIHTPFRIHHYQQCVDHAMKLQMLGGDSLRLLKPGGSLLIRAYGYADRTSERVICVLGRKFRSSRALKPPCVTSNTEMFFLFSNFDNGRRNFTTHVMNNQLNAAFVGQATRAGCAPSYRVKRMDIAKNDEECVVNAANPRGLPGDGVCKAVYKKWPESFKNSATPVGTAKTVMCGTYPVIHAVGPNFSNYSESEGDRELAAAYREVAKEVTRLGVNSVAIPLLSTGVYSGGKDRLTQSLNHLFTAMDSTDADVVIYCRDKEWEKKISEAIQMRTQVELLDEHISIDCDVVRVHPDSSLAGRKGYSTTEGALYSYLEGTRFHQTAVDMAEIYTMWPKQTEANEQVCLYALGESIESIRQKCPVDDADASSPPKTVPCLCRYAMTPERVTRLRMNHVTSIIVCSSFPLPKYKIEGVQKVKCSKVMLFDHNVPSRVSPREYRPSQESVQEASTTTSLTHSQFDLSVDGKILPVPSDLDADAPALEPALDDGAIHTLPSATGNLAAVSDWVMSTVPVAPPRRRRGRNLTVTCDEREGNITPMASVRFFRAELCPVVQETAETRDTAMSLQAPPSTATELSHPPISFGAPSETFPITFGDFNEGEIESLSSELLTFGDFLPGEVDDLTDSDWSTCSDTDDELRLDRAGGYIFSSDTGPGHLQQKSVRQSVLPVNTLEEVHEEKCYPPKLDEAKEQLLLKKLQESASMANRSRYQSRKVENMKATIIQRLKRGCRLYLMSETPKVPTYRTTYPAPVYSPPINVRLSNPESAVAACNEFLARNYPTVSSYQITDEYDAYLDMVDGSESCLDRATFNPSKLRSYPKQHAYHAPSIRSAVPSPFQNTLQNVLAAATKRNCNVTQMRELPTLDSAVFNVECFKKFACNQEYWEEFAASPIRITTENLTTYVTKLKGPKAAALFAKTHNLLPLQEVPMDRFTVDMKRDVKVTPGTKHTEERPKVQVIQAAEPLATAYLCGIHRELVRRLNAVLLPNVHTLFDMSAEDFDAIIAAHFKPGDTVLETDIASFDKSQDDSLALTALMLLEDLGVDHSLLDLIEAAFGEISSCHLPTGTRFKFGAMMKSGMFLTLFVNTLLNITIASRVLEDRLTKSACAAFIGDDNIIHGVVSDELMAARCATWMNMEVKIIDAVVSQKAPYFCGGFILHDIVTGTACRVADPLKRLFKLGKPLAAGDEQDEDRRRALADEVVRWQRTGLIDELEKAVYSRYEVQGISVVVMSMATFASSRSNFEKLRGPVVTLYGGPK

Compound	inhibition [1] [%]	also measured
C=CC(=O)NCc1ccc(Br)cc1F	< 40	–
C=CC(=O)Nc1ccc(OC)c(O)c1	> 40	–
C=CC(=O)Nc1ccc([N+](=O)[O-])cc1	100	–
C=CC(=O)NCc1ccc2c(c1)OCO2	< 40	–
C=CC(=O)NCc1ccc(C(F)(F)F)cc1	< 40	–
CCC(=O)NCc1cccc(C(F)(F)F)c1	< 40	Activity [2]: Active
C=CC(=O)N[C@H](C)c1ccccc1	< 40	–
C=CC(=O)NCc1ccc(F)cc1	< 40	–
C=CC(=O)N(C)Cc1ccccc1	< 40	–
C=CC(=O)N[C@@H]1CCCC[C@H]1NC(=O)C=C	< 40	–
C=CC(=O)NCCc1ccc(O)cc1	< 40	–
C=CC(=O)Nc1ccc(I)cc1	> 40	–
C=CC(=O)Nc1ccc(Br)cc1	> 40	IC50 (Polyprotein P1234): 1300 µM; Activity [3]: Active; Activity [4]: 17%; inhibition [5]: inactive; inhibition [6]: Active; Inhibition Is Weaker Than Chikv Nsp2Pro
C=CC(=O)NCc1ccccc1	< 40	–
C=CC(=O)Nc1ccccc1	< 40	–
C=CC(=O)NCc1cccc(C(F)(F)F)c1	> 40	IC50 (Polyprotein P1234): 1300 µM; Activity [3]: Active
C=CC(=O)N[C@@H](C)c1ccccc1	< 40	–
C=CC(=O)NCc1ccc(OC)cc1	< 40	–

Compound	inhibition [1] [%]	also measured
C=CC(=O)NCc1ccc(Cl)cc1F	< 40	–
C=CC(=O)NC1CCCCC1	< 40	–
C=CC(=O)Nc1c(CC(C)C)cccc1CC(C)C	< 40	–
C=CC(=O)N(C(C)C)C1CCCCC1	< 40	–
C=CC(=O)Nc1ccc(OC)cc1[N+](=O)[O-]	> 40	–
C=CC(=O)N[C@H]1CCc2ccccc21	< 40	–
C=CC(=O)Nc1ccc(OC)cc1	< 40	–
CCC(=O)Nc1ccc(Br)cc1	< 40	Activity [2]: Active
C=CC(=O)N1CCN(C(=O)OC(C)(C)C)CC1	< 40	–
C=CC(=O)Nc1cccc(C)c1C	< 40	–
C=CC(=O)NCCc1c[nH]c2ccccc12	> 40	–
C=CC(=O)NCc1ccc(C(C)(C)C)cc1	< 40	–
C=CC(=O)Nc1ccc(OC)c(OC)c1	< 40	–
C=CC(=O)NCc1ccccc1Cl	–	inhibition [5]: inactive; inhibition [6]: Active; Inhibition Is Weaker Than Chikv Nsp2Pro
C=CC(=O)NCCc1ccccc1	< 40	–
C=CC(=O)NCc1ccc(Cl)cc1	< 40	–
C=CC(=O)Nc1ccc(OC)c(OC(=O)C=C)c1	> 40	–
